Patent US10035777B2, “Heterocyclic kinase inhibitors” (priority 2014, dated 2018)

These compounds were tested against GST-Xa-hAAK1 (Homo sapiens (Human), UniProt Q2M2I8) (assay: biochemical). Conditions: not given.
Method: The assays were performed in U-bottom 384-well plates. […] The reactions were initiated by the combination of bacterially expressed, GST-Xa-hAAK1 with substrates and test compounds. The reactions were incubated at room temperature for 3 hours and terminated by adding 60 μl of 35 mM EDTA buffer to each sample. The reactions were analyzed on the Caliper LabChip 3000 (Caliper, Hopkinton, Mass.) by electrophoretic separation of the fluorescent substrate and phosphorylated product. […] Compounds were dissolved at 10 mM in dimethylsulfoxide (DMSO) and evaluated at eleven concentrations. IC50 values were derived by non-linear regression analysis.

Chain of GST-Xa-hAAK1 (Q2M2I8 whole entry): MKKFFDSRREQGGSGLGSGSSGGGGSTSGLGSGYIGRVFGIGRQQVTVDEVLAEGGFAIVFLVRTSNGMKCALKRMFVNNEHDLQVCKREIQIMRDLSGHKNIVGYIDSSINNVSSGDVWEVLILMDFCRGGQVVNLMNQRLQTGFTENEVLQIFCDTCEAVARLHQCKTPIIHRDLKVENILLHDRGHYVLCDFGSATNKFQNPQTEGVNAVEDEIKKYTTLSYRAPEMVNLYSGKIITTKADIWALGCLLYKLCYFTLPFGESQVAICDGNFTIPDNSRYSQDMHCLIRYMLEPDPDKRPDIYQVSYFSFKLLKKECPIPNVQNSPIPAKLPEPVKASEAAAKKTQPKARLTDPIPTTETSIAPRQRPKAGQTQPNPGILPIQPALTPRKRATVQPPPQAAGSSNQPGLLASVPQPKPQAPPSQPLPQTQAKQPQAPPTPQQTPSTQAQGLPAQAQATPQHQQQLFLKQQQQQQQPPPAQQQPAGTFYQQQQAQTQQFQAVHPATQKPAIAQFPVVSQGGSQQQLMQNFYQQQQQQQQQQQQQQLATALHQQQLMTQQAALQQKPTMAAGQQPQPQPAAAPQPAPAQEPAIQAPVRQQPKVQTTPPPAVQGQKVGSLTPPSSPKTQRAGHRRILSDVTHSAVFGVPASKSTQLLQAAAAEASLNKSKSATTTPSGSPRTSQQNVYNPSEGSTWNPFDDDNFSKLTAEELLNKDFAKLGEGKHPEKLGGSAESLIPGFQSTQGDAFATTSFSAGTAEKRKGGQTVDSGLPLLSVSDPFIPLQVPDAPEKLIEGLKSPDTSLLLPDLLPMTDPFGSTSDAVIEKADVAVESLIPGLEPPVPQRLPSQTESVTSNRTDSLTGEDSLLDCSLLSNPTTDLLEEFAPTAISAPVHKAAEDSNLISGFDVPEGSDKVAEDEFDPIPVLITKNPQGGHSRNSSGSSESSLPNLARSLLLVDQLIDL

| Structure (SMILES) | IC50 |
| --- | --- |
| CC1(C)CC1c1nc2ccc(-c3ccncc3)cc2[nH]1 (stereo not drawn) [Example 49, 2-(2,2-dimethylcyclopropyl)-6-(pyridin-4-yl)-1H-benzo[d]imidazole] | 338 nM |
| CC(C)CC(CN)c1nc2cc(-c3ccncc3)ccc2[nH]1 (stereo not drawn) [Example 67, 4-methyl-2-(5-(pyridin-4-yl)-1H-benzo[d]imidazol-2-yl) pentan-1-amine] | 49 nM |
| CC(C(N)c1nc2ccc(-c3ccncc3)cc2[nH]1)C(F)(F)F (single isomer, unassigned) [Example 52, 3,3,3-trifluoro-2-methyl-1-(6-(pyridin-4-yl)-1H-benzo[d]imidazol-2-yl)propan-1-amine] | 232 nM |
| COc1cc2[nH]c(CC3CCCC3)nc2cc1-c1cnco1 [Example 69, 5-(2-(cyclopentylmethyl)-6-methoxy-1H-benzo[d]imidazol-5-yl) oxazole] | 57 nM |
| COc1cc(-c2ccncc2)cc2nc([C@H](N)CC(C)C)[nH]c12 [Example 22, (R)-1-(7-methoxy-5-(pyridin-4-yl)-1H-benzo[d]imidazol-2-yl)-3-methylbutan-1-amine] | 52 nM |
| c1cc(-c2ccc3[nH]c(CC4CCCCC4)nc3c2)ccn1 [Example 72, 2-(cyclohexylmethyl)-5-(pyridin-4-yl)-1H-benzo[d]imidazole] | 108 nM |
| COc1cc2nc([C@H](N)CC(C)C)[nH]c2cc1-c1cnco1 [Example 29, (R)-1-(5-methoxy-6-(oxazol-5-yl)-1H-benzo[d]imidazol-2-yl)-3-methylbutan-1-amine] | 12 nM |
| N[C@@H](c1nc2cc(-c3ccncc3)ccc2[nH]1)C1CC1 [Example 74, (R)-cyclopropyl (5-(pyridin-4-yl)-1H-benzo[d]imidazol-2-yl)methanamine] | 228 nM |
| CN[C@H](CC(C)C)c1nc2cc(-c3ccncc3)ccc2[nH]1 [Example 62, N,3-dimethyl-1-(5-(pyridin-4-yl)-1H-benzo[d]imidazol-2-yl) butan-1-amine] | 12 nM |
| CC(C)CCc1nc2ccc(-c3cnco3)cc2o1 [Example 100, 2-isopentyl-6-(oxazol-5-yl)benzo[d]oxazole] | 1020 nM |

Same assay, conditions: ATP 22 μM; GST-Xa-hAAK1 3.5 nM; room temperature for 3 hours; Caliper LabChip 3000; read-out: AAK1 IC50

| Structure (SMILES) | IC50 |
| --- | --- |
| COc1cnccc1-c1ccc2oc(C(N)CC(C)C)nc2c1 (stereo not drawn) [Example 94, 1-(5-(3-methoxypyridin-4-yl)benzo[d]oxazol-2-yl)-3-methylbutan-1-amine] | 294 nM |
| CC(C)CC(C)c1nc2cc(-c3ccncc3)ccc2o1 (stereo not drawn) [Example 88, 2-(4-methylpentan-2-yl)-5-(pyridin-4-yl)benzo[d]oxazole] | 62 nM |
| NC(CCC(F)(F)F)c1nc2ccc(-c3cnco3)cc2[nH]1 (stereo not drawn) [Example 105, 4,4,4-trifluoro-1-(6-(oxazol-5-yl)-1H-benzo[d]imidazol-2-yl)butan-1-amine] | 150 nM |
| CC(C)CC(N)c1nc2cc(-c3ccncc3)ccc2s1 (stereo not drawn) [Example 95, 3-methyl-1-(5-(pyridin-4-yl)benzo[d]thiazol-2-yl)butan-1-amine] | 100 nM |
| NC(CC(C(F)(F)F)C(F)(F)F)c1nc2cc(-c3ccncc3)ccc2o1 (stereo not drawn) [Example 91, 4,4,4-trifluoro-1-(5-(pyridin-4-yl)benzo[d]oxazol-2-yl)-3-(trifluoromethyl)butan-1-amine] | 391 nM |
| CC(C)CCc1nc2ccc(-c3ccncc3)cc2o1 [Example 85, 2-isopentyl-6-(pyridin-4-yl)benzo[d]oxazole] | 833 nM |
| CC(C)CC(N)c1nc2ccc(-c3ccncc3)cc2o1 (stereo not drawn) [Example 84, 3-methyl-1-(6-(pyridin-4-yl)benzo[d]oxazol-2-yl)butan-1-amine] | 438 nM |
| CC(C)(F)CC(N)c1nc2cc(-c3ccncc3)ccc2[nH]1 (stereo not drawn) [Example 76, 3-fluoro-3-methyl-1-(5-(pyridin-4-yl)-1H-benzo[d]imidazol-2-yl)butan-1-amine] | 350 nM |
| CC(C)C[C@@H](N)c1nc2cc(-c3ccnc(N)c3)ccc2[nH]1 [Example 18, (R)-4-(2-(1-amino-3-methylbutyl)-1H-benzo[d]imidazol-5-yl)pyridin-2-amine] | 19 nM |
| COc1cc(-c2cc(OC)c3[nH]c([C@H](N)CC(C)C)nc3c2)ccn1 [Example 24, (R)-1-(7-methoxy-5-(2-methoxypyridin-4-yl)-1H-benzo[d]imidazol-2-yl)-3-methylbutan-1-amine] | 1590 nM |
| c1cc(-c2ccc3[nH]c(CC4CCCC4)nc3c2)ccn1 [Example 99, 2-(cyclopentylmethyl)-5-(pyridin-4-yl)-1H-benzo[d]imidazole] | 105 nM |
| CC(C)C[C@H](N)c1nc2cc(-c3cnco3)ccc2[nH]1 [Example 5, (S)-3-methyl-1-(5-(oxazol-5-yl)-1H-benzo[d]imidazol-2-yl)butan-1-amine] | 93 nM |
| COCCN[C@H](CC(C)C)c1nc2cc(-c3cnco3)ccc2[nH]1 [Example 102, (R)-N-(2-methoxyethyl)-3-methyl-1-(5-(oxazol-5-yl)-1H-benzo[d]imidazol-2-yl)butan-1-amine] | 680 nM |
| CC(C)C[C@@H](N)c1nc2ccc(-c3ccncc3)cc2n1C(C)C [Example 44, (R)-1-(1-isopropyl-6-(pyridin-4-yl)-1H-benzo[d]imidazol-2-yl)-3-methylbutan-1-amine] | 124 nM |
| CC(C)C[C@@H](N)c1nc2ccc(-c3cnco3)cc2n1CCO [Example 41, (R)-2-(2-(1-amino-3-methylbutyl)-6-(oxazol-5-yl)-1H-benzo[d]imidazol-1-yl)ethanol] | 559 nM |
| CC(C)C[C@@H](N)c1nc2cc(-c3ccnc(N(C)C)n3)ccc2[nH]1 [Example 14, (R)-4-(2-(1-amino-3-methylbutyl)-1H-benzo[d]imidazol-5-yl)-N,N-dimethylpyrimidin-2-amine] | 198 nM |
| CC(C(N)c1nc2ccc(-c3ccncc3)cc2[nH]1)C(F)(F)F (single isomer, unassigned) [Example 53, 3,3,3-trifluoro-2-methyl-1-(6-(pyridin-4-yl)-1H-benzo[d]imidazol-2-yl)propan-1-amine] | 521 nM |
| CC(C)C[C@@H](N)c1nc2cc(-c3ccnc(F)c3)ccc2[nH]1 [Example 12, (R)-1-(5-(2-fluoropyridin-4-yl)-1H-benzo[d]imidazol-2-yl)-3-methylbutan-1-amine] | 148 nM |
| CC(C)C[C@@H](N)c1nc2cc(-c3cc(F)nc(F)c3)ccc2[nH]1 [Example 17, (R)-1-(5-(2,6-difluoropyridin-4-yl)-1H-benzo[d]imidazol-2-yl)-3-methylbutan-1-amine] | 3940 nM |
| CCn1c([C@H](N)CC(C)C)nc2cc(-c3cnco3)ccc21 [Example 46, (R)-1-(1-ethyl-5-(oxazol-5-yl)-1H-benzo[d]imidazol-2-yl)-3-methylbutan-1-amine] | 1540 nM |
| CC(C)CCc1nc2cc(-c3ccncc3)ccc2o1 [Example 89, 2-isopentyl-5-(pyridin-4-yl)benzo[d]oxazole] | 327 nM |
| COc1cnccc1-c1cc(OC)c2[nH]c([C@H](N)CC(C)C)nc2c1 [Example 23, (R)-1-(7-methoxy-5-(3-methoxypyridin-4-yl)-1H-benzo[d]imidazol-2-yl)-3-methylbutan-1-amine] | 553 nM |

Same assay, conditions: read-out: AAK1 IC50

| Structure (SMILES) | IC50 |
| --- | --- |
| CN[C@H](CC(C)C)c1nc2cc(-c3ccnnc3)ccc2[nH]1 [Example 109, (R)-N,3-dimethyl-1-(5-(pyridazin-4-yl)-1H-benzo[d]imidazol-2-yl)butan-1-amine] | 428 nM |
